Tests used:
[1] = test system: CHO 9E4 cells; assay: Preliminary culture of CHO 9E4 cells with leflunomide; type: cell-based, Chinese hamster; settings: leflunomide at 50 and 100 μM; preliminary experiments
Description: This obtained 27 wells with growing cells. Of these 27, 4 produced low but significant amount 13C3 antibody. However production was unstable and the efficiency was low below 0.1%. These experiments served as proof of principle that DHODH can be used as a selectable marker for recombinant protein production, so further experiments were performed.

[2] = test system: CHO 9E4 cell line; assay: Selection of stably transfected CHO 9E4 cells with leflunomide or teriflunomide as selection agent; type: cell-based, Chinese hamster; settings: for Antibody: Less than 10 μg/ml (number of wells) / Antibody: More than 10 μg/ml (number of wells) / % of Occupied / % of Producers / Occupied (number of wells): Teriflunomide 50 μM; for % of Occupied / % of Producers / Occupied (number of wells): 480 wells tested; for Occupied (number of wells): growing clones after 15 to 20 days
Text: The CHO 9E4 cell line was transfected with two different plasmids bearing the cDNA encoding human DHODH cDNA and the genetic material for production of anti CD38 or 13C3 antibodies (vectors pBH4952 and pBH4967). As a control vector for selection, the plasmid bearing a cDNA encoding human GS cDNA instead of DHODH (pBH3695) was transfected using into CHO 9E4 cell lines. The genetic material was transfected using standard electroporation techniques.
Twenty four hours post transfection, the selection process was started. […] The control vector was equally transfected and submitted to the same selection process.
In each case, 480 wells were seeded with 2000 cells/well.

[3] = test system: CHO 9E4 cells; settings: MSX 25 μM; 13C3; 960 wells tested; growing clones after 15 to 20 days

SMILES: Cc1oncc1C(=O)Nc1ccc(C(F)(F)F)cc1 [leflunomide, 5-methyl-N-[4-(trifluoromethyl)phenyl]-isoxazole-4-carboxamide]
- effect on CHO 9E4 cell growth [1]: did not kill the cells but inhibited growth
- antibody in supernatants of the 480 wells ([2]; leflunomide 50 and 100 μM): none of the supernatants showed detectable amount of antibodies
- wells displaying growing clones ([2]; leflunomide 50 and 100 μM, DHODH from human or hamster origin, after 20 days): all the wells were displaying growing clones

SMILES: C/C(O)=C(\C#N)C(=O)Nc1ccc(C(F)(F)F)cc1 [teriflunomide, (2Z)-2-cyano-3-hydroxy-N-[4-(trifluoromethyl)phenyl]but-2-enamide]
- Antibody: Less than 10 μg/ml (number of wells) ([2]; 13C3): 24
- Antibody: More than 10 μg/ml (number of wells) ([2]; 13C3): 14
- % of Occupied ([2]; 13C3): 8%
- % of Producers ([2]; 13C3): 3%
- Occupied (number of wells) ([2]; 13C3): 38
- Antibody: Less than 10 μg/ml (number of wells) ([2]; anti-CD38): 29
- Antibody: More than 10 μg/ml (number of wells) ([2]; anti-CD38): 19
- % of Occupied ([2]; anti-CD38): 10%
- % of Producers ([2]; anti-CD38): 4%
- Occupied (number of wells) ([2]; anti-CD38): 48
- growth of cells transfected with control vector ([2]; control vector pBH3695 (human GS), 50 and 100 μM teriflunomide, even after 25 days, 480 wells): no growth was observed in any of the wells
- wells with growing cells ([2]; teriflunomide-selected, human DHODH vectors pBH4967 and pBH4952, two weeks later): 8-10%
- growth of cells transfected with hamster DHODH vectors ([2]; teriflunomide-selected, vectors pBH4940 and pBH4939): no growth was observed in any of the wells

SMILES: CS(=N)(=O)CC[C@H](N)C(=O)O (stereo partly drawn) [MSX, L-methionine sulfoximine]
- Occupied (number of wells) [3]: 46

From patent US12203103B2, “Selection marker for cell transfection and protein production” (Sanofi, priority 2014, dated 2025)
